#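 The concentration for 50% growth inhibition is given as GI50. TGI marks complete inhibition of growth.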
# Columns and labels:
# Test in all cases: NCI tumour cell line growth inhibition, 384-well format
# U251 glioblastoma = system: U251 glioblastoma
# NCI-H460 NSCLC = system: NCI-H460 NSCLC
# MDA-MB-231 breast = system: MDA-MB-231 breast
# OVCAR-3 ovarian = system: OVCAR-3 ovarian
# OVCAR-5 ovarian = system: OVCAR-5 ovarian
# HL-60(TB) leukemia = system: HL-60(TB) leukemia
# K-562 leukemia = system: K-562 leukemia
# NCI/ADR-RES ovarian = system: NCI/ADR-RES ovarian
# EKVX NSCLC = system: EKVX NSCLC
# OVCAR-8 ovarian = system: OVCAR-8 ovarian
# HCC-2998 colon = system: HCC-2998 colon
# BT-549 breast = system: BT-549 breast
# HCT-116 colon = system: HCT-116 colon
# MCF7 breast = system: MCF7 breast
# 786-0 renal = system: 786-0 renal
# UO-31 renal = system: UO-31 renal
# NCI-H23 lung = system: NCI-H23 lung
# SNB-19 CNS = system: SNB-19 CNS
# SF-295 CNS = system: SF-295 CNS
# HCT-15 colon = system: HCT-15 colon
# SK-MEL-5 melanoma = system: SK-MEL-5 melanoma
# SK-OV-3 ovarian = system: SK-OV-3 ovarian
# COLO 205 colon = system: COLO 205 colon
# SR leukemia = system: SR leukemia
# SNB-75 CNS = system: SNB-75 CNS
# SK-MEL-2 melanoma = system: SK-MEL-2 melanoma
# HOP-92 NSCLC = system: HOP-92 NSCLC
# T-47D breast = system: T-47D breast
# LOX IMVI melanoma = system: LOX IMVI melanoma
# M14 melanoma = system: M14 melanoma
# TK-10 renal = system: TK-10 renal
# SK-MEL-28 melanoma = system: SK-MEL-28 melanoma
# NCI-H522 lung = system: NCI-H522 lung
# MALME-3M melanoma = system: MALME-3M melanoma
# SF-268 CNS = system: SF-268 CNS
# ACHN renal = system: ACHN renal
# MOLT-4 leukemia = system: MOLT-4 leukemia
# A498 renal = system: A498 renal
# HT29 colon = system: HT29 colon
# SF-539 CNS = system: SF-539 CNS
# SW-620 colon = system: SW-620 colon
# UACC-62 melanoma = system: UACC-62 melanoma
# PC-3 prostate = system: PC-3 prostate
# HOP-62 NSCLC = system: HOP-62 NSCLC
# NCI-H322M lung = system: NCI-H322M lung
# KM12 colon = system: KM12 colon
# RPMI-8226 leukemia = system: RPMI-8226 leukemia
# NCI-H226 lung = system: NCI-H226 lung
# A549 NSCLC = system: A549 NSCLC
# IGROV1 ovarian = system: IGROV1 ovarian
# MDA-MB-468 breast = system: MDA-MB-468 breast
# DU-145 prostate = system: DU-145 prostate
# RXF 393 renal = system: RXF 393 renal
# CAKI-1 renal = system: CAKI-1 renal
# CCRF-CEM leukemia = system: CCRF-CEM leukemia
# MDA-MB-435 melanoma = system: MDA-MB-435 melanoma
# UACC-257 melanoma = system: UACC-257 melanoma
# SN12C renal = system: SN12C renal
# OVCAR-4 ovarian = system: OVCAR-4 ovarian
# HS 578T breast = system: HS 578T breast
smiles,measurement,setting,value
Cc1[nH]nc(C(F)(F)F)c1Cc1sc2c(c1C(=O)N1C[C@](C)(O)CO1)c(=O)n(C)c(=O)n2C(C)C,GI50,U251 glioblastoma,> 25 µM
same,TGI,U251 glioblastoma,> 100 µM
same,TGI,NCI-H460 NSCLC,> 100 µM
same,GI50,MDA-MB-231 breast,> 100 µM
same,TGI,MDA-MB-231 breast,> 100 µM
same,GI50,OVCAR-3 ovarian,> 29.3 µM
same,TGI,OVCAR-3 ovarian,> 100 µM
same,GI50,OVCAR-5 ovarian,> 78.6 µM
same,TGI,OVCAR-5 ovarian,> 100 µM
same,TGI,HL-60(TB) leukemia,> 29.8 µM
same,TGI,K-562 leukemia,> 100 µM
same,GI50,NCI/ADR-RES ovarian,> 58.7 µM
same,TGI,NCI/ADR-RES ovarian,> 100 µM
same,GI50,EKVX NSCLC,> 100 µM
same,TGI,EKVX NSCLC,> 100 µM
same,GI50,OVCAR-8 ovarian,> 22.8 µM
same,TGI,OVCAR-8 ovarian,> 100 µM
same,GI50,HCC-2998 colon,> 100 µM
same,TGI,HCC-2998 colon,> 100 µM
same,GI50,BT-549 breast,> 57 µM
same,TGI,BT-549 breast,> 100 µM
same,GI50,HCT-116 colon,> 24.5 µM
same,TGI,HCT-116 colon,> 100 µM
same,GI50,MCF7 breast,> 82.5 µM
same,TGI,MCF7 breast,> 100 µM
same,GI50,786-0 renal,> 26.9 µM
same,TGI,786-0 renal,> 100 µM
same,GI50,UO-31 renal,12.9 µM
same,TGI,UO-31 renal,> 100 µM
same,GI50,NCI-H23 lung,> 27.1 µM
same,TGI,NCI-H23 lung,> 100 µM
same,GI50,SNB-19 CNS,> 100 µM
same,TGI,SNB-19 CNS,> 100 µM
same,GI50,SF-295 CNS,> 100 µM
same,TGI,SF-295 CNS,> 100 µM
same,GI50,HCT-15 colon,12.2 µM
same,TGI,HCT-15 colon,> 100 µM
same,TGI,SK-MEL-5 melanoma,> 100 µM
same,GI50,SK-OV-3 ovarian,> 100 µM
same,TGI,SK-OV-3 ovarian,> 100 µM
same,GI50,COLO 205 colon,> 21.8 µM
same,TGI,COLO 205 colon,> 100 µM
same,GI50,SR leukemia,> 100 µM
same,TGI,SR leukemia,> 100 µM
same,GI50,SNB-75 CNS,> 41.9 µM
same,TGI,SNB-75 CNS,> 100 µM
same,GI50,SK-MEL-2 melanoma,39.1 µM
same,TGI,SK-MEL-2 melanoma,> 100 µM
same,GI50,HOP-92 NSCLC,> 100 µM
same,TGI,HOP-92 NSCLC,> 100 µM
same,GI50,T-47D breast,> 100 µM
same,TGI,T-47D breast,> 100 µM
same,TGI,LOX IMVI melanoma,> 100 µM
same,GI50,M14 melanoma,> 33.7 µM
same,TGI,M14 melanoma,> 100 µM
same,GI50,TK-10 renal,> 100 µM
same,TGI,TK-10 renal,> 100 µM
same,GI50,SK-MEL-28 melanoma,> 100 µM
same,TGI,SK-MEL-28 melanoma,> 100 µM
same,GI50,NCI-H522 lung,2.15 µM
same,TGI,NCI-H522 lung,18.3 µM
same,GI50,MALME-3M melanoma,> 77.9 µM
same,TGI,MALME-3M melanoma,> 100 µM
same,TGI,SF-268 CNS,> 29.6 µM
same,GI50,ACHN renal,> 33.1 µM
same,TGI,ACHN renal,> 100 µM
same,GI50,MOLT-4 leukemia,0.0847 µM
same,GI50,A498 renal,> 100 µM
same,TGI,A498 renal,> 100 µM
same,GI50,HT29 colon,> 39.6 µM
same,TGI,HT29 colon,> 100 µM
same,GI50,SF-539 CNS,> 27 µM
same,TGI,SF-539 CNS,> 100 µM
same,GI50,SW-620 colon,> 24.4 µM
same,TGI,SW-620 colon,> 100 µM
same,TGI,UACC-62 melanoma,> 100 µM
same,GI50,PC-3 prostate,> 100 µM
same,TGI,PC-3 prostate,> 100 µM
same,GI50,HOP-62 NSCLC,> 27.3 µM
same,TGI,HOP-62 NSCLC,> 100 µM
same,GI50,NCI-H322M lung,> 100 µM
same,TGI,NCI-H322M lung,> 100 µM
same,GI50,KM12 colon,> 31.6 µM
same,TGI,KM12 colon,> 100 µM
same,GI50,RPMI-8226 leukemia,20.9 µM
same,TGI,RPMI-8226 leukemia,> 86 µM
same,GI50,NCI-H226 lung,> 100 µM
same,TGI,NCI-H226 lung,> 100 µM
same,GI50,A549 NSCLC,> 21.2 µM
same,TGI,A549 NSCLC,> 100 µM
same,GI50,IGROV1 ovarian,> 100 µM
same,TGI,IGROV1 ovarian,> 100 µM
same,GI50,MDA-MB-468 breast,4.75 µM
same,TGI,MDA-MB-468 breast,66.4 µM
same,GI50,DU-145 prostate,> 30.5 µM
same,TGI,DU-145 prostate,> 100 µM
same,GI50,RXF 393 renal,> 27.3 µM
same,TGI,RXF 393 renal,> 100 µM
same,GI50,CAKI-1 renal,> 47.6 µM
same,TGI,CAKI-1 renal,> 80 µM
same,GI50,CCRF-CEM leukemia,0.779 µM
same,GI50,MDA-MB-435 melanoma,> 69 µM
same,TGI,MDA-MB-435 melanoma,> 100 µM
same,GI50,UACC-257 melanoma,> 100 µM
same,TGI,UACC-257 melanoma,> 100 µM
same,GI50,SN12C renal,> 100 µM
same,TGI,SN12C renal,> 100 µM
same,GI50,OVCAR-4 ovarian,> 100 µM
same,TGI,OVCAR-4 ovarian,> 100 µM
same,GI50,HS 578T breast,8.39 µM
same,TGI,HS 578T breast,> 100 µM
